Test results: patent US20200319197A1, “Biomarkers of Preterm Birth” (Carmentix PTE. Ltd., priority 2017, published 2020)
Read-outs that look alike come from different tables or passages of the source.

Columns and labels:
EFEMP1 = settings: End1, 100 μM H2O2, 24 h, vs control untreated cells, ± SEM
ECM1 [1] = settings: Ect1, 200 μM H2O2, 24 h, vs control untreated cells, ± SEM
LAMC2 [2] = assay: LAMC2 in medium of End1 post-H2O2 treatment, ELISA; settings: vs control untreated cells, ± SEM
GGH [3] = assay: GGH in medium of End1 post-H2O2 treatment, ELISA; settings: vs control untreated cells, ± SEM
GGH [4] = assay: GGH in medium of Ect1 post-H2O2 treatment, ELISA; settings: for Fold change GGH expression: vs control untreated cells, ± SEM
ECM1 [5] = assay: ECM1 in medium of End1 post-H2O2 treatment, ELISA; settings: vs control untreated cells, ± SEM
Ect1 cells = assay: MTT assay, cell viability and proliferation after H2O2 treatment, Ect1; settings: vs untreated control
FGA [6] = settings: End1, 100 μM H2O2, 24 h, vs control untreated cells, ± SEM
End1 cells = settings: MTT, vs untreated control; for decrease in cell viability: significant
GGH [7] = assay: GGH in medium of Ect1 post-LPS treatment, ELISA; assay type: cell-based; settings: for Fold change GGH expression: 24 h, vs control untreated cells, ± SEM
Procedure: (§1) At Day 1, cell culture was removed and substituted with KSFM without growth factor supplement. Cells were then treated with increasing doses of LPS (10 μg/ml, 25 μg/ml, 50 μg/ml) at Day 2.

GGH [8] = assay: GGH in medium of End1 post-LPS treatment, ELISA; assay type: cell-based; settings: for Fold change GGH expression: 24 h, vs control untreated cells, ± SEM
Procedure: as §1

FGA [9] = assay: FGA in medium of Ect1 post-LPS treatment, ELISA; assay type: cell-based; settings: for Fold change FGA expression: 24 h, vs control untreated cells, ± SEM
Procedure: as §1

ECM1 [10] = assay: ECM1 in medium of End1 post-LPS treatment, ELISA; assay type: cell-based; settings: for Fold change ECM1 expression: 24 h, vs control untreated cells, ± SEM
Procedure: as §1

FGA [11] = assay: FGA in medium of End1 post-LPS treatment, ELISA; assay type: cell-based; settings: for Fold change FGA expression: 24 h, vs control untreated cells, ± SEM
Procedure: as §1

ECM1 [12] = assay: ECM1 in medium of Ect1 post-LPS treatment, ELISA; assay type: cell-based; settings: 24 h, vs control untreated cells, ± SEM
Procedure: as §1

LAMC2 [13] = assay: LAMC2 in medium of Ect1 post-LPS treatment, ELISA; assay type: cell-based; settings: Ect1, 50 μg/ml LPS, 24 h, vs control untreated cells, ± SEM
Procedure: as §1

LAMC2 [14] = assay: LAMC2 in medium of End1 post-LPS treatment, ELISA; assay type: cell-based; settings: 24 h, vs control untreated cells, ± SEM
Procedure: as §1

[15] = Ect1, 3 different doses of LPS, statistically insignificant
[16] = End1, LPS treatment, dose not specified

For `OO` [H2O2, Hydrogen peroxide], the “Fold change EFEMP1 expression” value (EFEMP1) was 0.73 ± 0.12 fold, the “Fold change ECM1 expression” value (ECM1 [1]) was 1.09 ± 0.21 fold and the “Fold change LAMC2 expression” value (LAMC2 [2]; End1, 100 μM H2O2, 24 h) was 1.15 ± 0.17 fold. For the same molecule, the “Fold change LAMC2 expression” value (LAMC2 [2]; End1, 200 μM H2O2, 24 h) was 0.95 ± 0.16 fold, the “Fold change GGH expression” value (GGH [3]; End1, 100 μM H2O2, 24 h) was 0.75 ± 0.16 fold and the “Fold change GGH expression” value (GGH [3]; End1, 200 μM H2O2, 24 h) was 0.86 ± 0.18 fold. The “Fold change GGH expression” value (GGH [4]; Ect1, 200 μM H2O2, 24 h) was 0.73 ± 0.16 fold, the “Fold change GGH expression” value (GGH [4]; Ect1, 400 μM H2O2, 24 h) was 1.01 ± 0.25 fold and the “GGH expression upon H2O2 treatment” value (GGH [4]; Ect1, H2O2 24 h, dose not given) was “remained relatively unchanged”. The “Fold change ECM1 expression” value (ECM1 [5]; End1, 100 μM H2O2, 24 h) was 1.02 ± 0.16 fold, the “Fold change ECM1 expression” value (ECM1 [5]; End1, 200 μM H2O2, 24 h) was 0.90 ± 0.07 fold and the “effect on cell viability” value (Ect1 cells; 50 μM H2O2, 24 h) was “did not affect cell viability”. For the same molecule, the “effect on cell viability” value (Ect1 cells; 100 μM H2O2, 24 h) was “did not affect cell viability”, the “decrease in cell density” value (Ect1 cells; 200 μM H2O2, 24 h, not statistically significant) was 20% and the “decrease in cell viability” value (Ect1 cells; 400 μM H2O2, 24 h, significant) was about 50%. For the same molecule, the “Fold change FGA expression” value (FGA [6]) was 0.96 ± 0.21 fold, the “effect on cell viability” value (End1 cells; 50 μM H2O2, 24 h) was “no effect” and the “decrease in cell viability” value (End1 cells; 100 μM H2O2, 24 h) was about 20%. The “decrease in cell viability” value (End1 cells; 200 μM H2O2, 24 h) was about 50% and the “decrease in cell viability” value (End1 cells; 400 μM H2O2, 24 h) was about 90%.

In the case of Lipopolysaccharide [LPS], the “Fold change GGH expression” value (GGH [7]; Ect1, 10 μg/ml LPS) is reported as 1.67 ± 0.40 fold, the “Fold change GGH expression” value (GGH [7]; Ect1, 25 μg/ml LPS) is reported as 1.42 ± 0.23 fold and the “Fold change GGH expression” value (GGH [7]; Ect1, 50 μg/ml LPS) is reported as 1.80 ± 0.52 fold. The “GGH expression in conditioned media” value (GGH [7]; [15]) was “slight increases”, the “Fold change GGH expression” value (GGH [8]; End1, 10 μg/ml LPS) was 0.69 ± 0.15 fold and the “Fold change GGH expression” value (GGH [8]; End1, 25 μg/ml LPS) was 0.92 ± 0.19 fold. For the same molecule, the “Fold change GGH expression” value (GGH [8]; End1, 50 μg/ml LPS) was 0.76 ± 0.13 fold, the “GGH expression level in conditioned media” value (GGH [8]; [16]) was “down-regulated” and the “Fold change FGA expression” value (FGA [9]; Ect1, 10 μg/ml LPS) was 1.05 ± 0.15 fold. For the same molecule, the “Fold change FGA expression” value (FGA [9]; Ect1, 25 μg/ml LPS) was 1.13 ± 0.12 fold, the “Fold change FGA expression” value (FGA [9]; Ect1, 50 μg/ml LPS) was 1.19 ± 0.22 fold and the “FGA expression in conditioned media” value (FGA [9]; [15]) was “slight increases”. The “Fold change ECM1 expression” value (ECM1 [10]; End1, 10 μg/ml LPS) was 0.94 ± 0.14 fold, the “Fold change ECM1 expression” value (ECM1 [10]; End1, 25 μg/ml LPS) was 0.87 ± 0.11 fold and the “Fold change ECM1 expression” value (ECM1 [10]; End1, 50 μg/ml LPS) was 0.76 ± 0.11 fold. The “ECM1 expression in conditioned media” value (ECM1 [10]; End1, LPS treatment, dose not specified, statistically insignificant) was “small decrease”, the “Fold change FGA expression” value (FGA [11]; End1, 10 μg/ml LPS) was 0.90 ± 0.10 fold and the “Fold change FGA expression” value (FGA [11]; End1, 25 μg/ml LPS) was 0.92 ± 0.15 fold. The “Fold change FGA expression” value (FGA [11]; End1, 50 μg/ml LPS) was 0.78 ± 0.10 fold, the “FGA expression level in conditioned media” value (FGA [11]; [16]) was “down-regulated” and the “Fold change ECM1 expression” value (ECM1 [12]; Ect1, 10 μg/ml LPS) was 0.87 ± 0.18 fold. For the same molecule, the “Fold change ECM1 expression” value (ECM1 [12]; Ect1, 50 μg/ml LPS) was 0.81 ± 0.17 fold, the “Fold change LAMC2 expression” value (LAMC2 [13]) was 5.99 ± 1.86 fold and the “Fold change LAMC2 expression” value (LAMC2 [14]; End1, 10 μg/ml LPS) was about 8 fold. The “Fold change LAMC2 expression” value (LAMC2 [14]; End1, 25 μg/ml LPS) was about 8 fold and the “Fold change LAMC2 expression” value (LAMC2 [14]; End1, 50 μg/ml LPS) was about 8 fold.
